{
  "source": "patent US6020121A",
  "about": "(priority 1996, dated 2000)",
  "origin": "cited, not measured here",
  "test_system": "production of several toxins",
  "conditions": "Agr independent; cited from earlier work",
  "data": [
    {"smiles": "CCCCCCCCCCCC(=O)OCC(O)CO", "note": "(stereo not shown) [GML, Glycerol monolaureate, reference compound]", "values": [
      {"measurement": "production of several toxins", "result": "lower the production of several toxins in an Agr independent manner"}
    ]}
  ]
}
